Experimental data reported in patent US7232846B2, “Amines as anti-alcoholism agents” (priority 2001, dated 2007).

Key:
[1] = tested on: genetically-alcoholic rats (UChB strain); assay: Anti-alcoholism activity in genetically-alcoholic rats (consumption of 10% v/v alcohol); assay type: in vivo, rat; conditions: for Reduction percentage in the consumption of alcohol (10% v/v), treat.: first 6 h after starting the treatment, vs reference period; for Reduction percentage in the consumption of alcohol (10% v/v), post-treat.: first 6 h after having stopped a 3-day treatment
Excerpt: As an animal model of alcoholic humans, adult Wistar rats of both sexes, belonging to the UChB strain were used. This strain of rats is the result of a long selection at the University of Chile, and rats belonging to it are known to be volunteer consumers of 10% (v/v) aqueous alcohol (cf. J. Mardones and N. Segovia-Riquelme, “Thirty two years of selection of rats by ethanol preference”: UChA and UChB strains”, Neurobehav. Toxicol. and Teratol. 1983, vol. 5, pp. 171–178). Thus, the rats used in these experiments can be considered genetically alcoholic.
Rats were kept in individual cages at 22° C., with alternative 12 h periods of light and darkness. Besides unlimited access to food, they had ad libitum access to water and 10% (v/v) aqueous alcohol. All experiments were double-blind, and results were analyzed using common statistical methods. As changes in alcohol consumption might be influenced by the eagerness of food and/or water intake, both the consumption of food and of water were measured and analyzed. However, experimental changes in the consumptions of both food and water were not significant. In each experiment the following three periods of time were considered:
a) A reference period, consisting of the three days previous to treatment. The measured consumption values were used as reference for comparison purposes.
b) A treatment period, consisting of the three days during which aqueous solutions of the tested compounds (obtained from SIGMA) were intra-gastrically administered, always at the same time of the day. Polyamines were administered as aqueous solutions of their corresponding fully-neutralized hydrochlorides, at concentration of 100 mg of the free-amine per 100 ml of water, when doses of 2 mg of amine per kg of rat; and at concentration of 1000 mg/100 ml, When doses of 20 mg/kg. Dansyl derivatives of polyamines were administered as aqueous suspensions of 100 mg of derivative per 100 ml of water, when doses of 4 mg of free-amine per kg of rat.
c) A post-treatment period, consisting of the three days immediate after the treatment period, during which measurement were taken in order to establish the duration of the effect and the reversibility of the changes.
Table 1 summarizes the average results from nine experiments, each one carried out with a set of 8 rats, where several compounds at different doses were used, and measurements of alcohol consumption were done at 6 h after the beginning of the treatment period, and at 6 h after the beginning of the post-treatment period. Figures in the table are differences in 10% (v/v) ethanol consumption between a given consumption during the reference period and the corresponding consumption during the treatment (or post-treatment) period, expressed a percentage of the consumption during the reference period (i.e. divided by this and multiplied by 100). As indicated by the figures, during treatment a significant reduction occurred in all cases; and during post-treatment a significant reduction occurred in all cases but two (those marked “ns”=non significant). Results in the table also indicate that there is a dose-effect relationship in the reduction of alcohol consumption during the treatment period.

[2] = Assessment of the disulfiram-like adverse effect (blood acetaldehyde after ethanol injection); assay type: in vivo, rat; conditions: Wistar rats, single 2 mg/kg p.o. 1 h before ethanol, mean ± SEM
Experimental: Blood samples were taken from the tail of the rat at different times after the injection of the ethanol solution. […] The animals of the disulfiram group received two doses of 300 mg p.o. of disulfiram per kg of rat, 23 h and 17 h before the administration of ethanol. The high concentration of acetaldehyde detected in these groups was expected. […] The animals of the other four groups received a single dose p.o. of 2 mg of the corresponding compound (in the form of 10 mg/100 ml aqueous solutions, which was of the hydrochlorides in the case of polyamines) per kg of rat, 1 h before the administration of ethanol. Figures in the table are mean values (±SEM) of acetaldehyde concentration in blood at the indicated times. It is observed that values of the groups corresponding to the four tested compounds were only slightly above the control ones, but far below the corresponding values of the disulfiram group.

[3] = dose 2 mg/kg, ns = non significant
[4] = dose 20 mg/kg, ns = non significant

Molecule | Reduction percentage in the consumption of alcohol (10% v/v), treat. ([1]; dose 4 mg/kg intra-gastric) [%] | Reduction percentage in the consumption of alcohol (10% v/v), post-treat. ([1]; dose 4 mg/kg) [%] | Reduction percentage in the consumption of alcohol (10% v/v), treat. ([1]; dose 2 mg/kg intra-gastric) [%] | Reduction percentage in the consumption of alcohol (10% v/v), post-treat. [1, 3] | Reduction percentage in the consumption of alcohol (10% v/v), treat. ([1]; dose 20 mg/kg intra-gastric) [%] | Reduction percentage in the consumption of alcohol (10% v/v), post-treat. [1, 4] | Acetaldehyde concentration in blood ([2]; 0.5 h after i.p. 2.76 g/kg ethanol) [μg/100 ml] | Acetaldehyde concentration in blood ([2]; 2 h after i.p. 2.76 g/kg ethanol) [μg/100 ml]
dansyl putrescine | 23 | 22 |  |  |  |  |  | 
NCCCCNCCCN [spermidine] |  |  | 25 | 17% | 29 | ns |  | 
NCCCCN [putrescine] |  |  | 13 | ns | 28 | 13% |  | 
NCCCNCCCCNCCCN [spermine] |  |  | 27 | 29% | 42 | 12% |  | 
NCCCN [1,3-propanediamine] |  |  |  |  | 27 | 12% |  | 
dansyl spermidine | 29 | 19 |  |  |  |  | 150 ± 5 | 40 ± 9
